One assay concerns the target T1, human V1a receptor (Homo sapiens, UniProt P37288).
T1 construct: expressed in transfected cells; host or cells: CHO K1 (ATCC), also stably transfected with a modified aequorin
Briefly: Cellular in vitro assay for determining vasopressin receptor activity (V1a, aequorin luminescence). The class given is cell-based. The settings on record: for IC50: CHO cell line transfected with human V1a receptor, [Arg8]-vasopressin at EC50 concentration, read-out: IC50 hV1a; for ratio IC50 hV2/hV1a: selectivity ratio IC50 hV2 / IC50 hV1a. The method, then: (§1) B-1. Cellular In Vitro Assay for Determining Vasopressin Receptor Activity
(§2) The identification of agonists and antagonists of the V1a and V2 vasopressin receptors from humans, rats and dogs as well as the quantification of the activity of the compounds of the invention is carried out using recombinant cell lines. These cell lines originally derive from a hamster's ovary epithelial cell (Chinese Hamster Ovary, CHO K1, ATCC: American Type Culture Collection, Manassas, Va. 20108, USA). The test cell lines constitutively express the human, rat or dog V1a or V2 receptors. In case of the Gαq-coupled V1a receptors, cells are also stably transfected with a modified form of the calcium-sensitive photoproteins aequorin (human and rat V1a) or obelin (dog V1a), which, after reconstitution with the cofactor coelenterazine, emit light when there are increases in free calcium concentrations [Rizzuto R, Simpson A W, Brini M, Pozzan T, Nature 358, 325-327 (1992); Illarionov B A, Bondar V S, Illarionova V A, Vysotski E S, Gene 153 (2), 273-274 (1995)]. The resulting vasopressin receptor cells react to stimulation of the recombinantly expressed V1a receptors by intracellular release of calcium ions, which can be quantified by the resulting photoprotein luminescence. The Gs-coupled V2 receptors are stably transfected into cell lines expressing the gene for firefly luciferase under control of a CRE-responsible promoter. Activation of V2 receptors induces the activation of the CRE-responsive promoter via cAMP increase, thereby inducing the expression of firefly luciferase. The light emitted by photoproteins of V1a cell lines as well as the light emitted by firefly luciferase of V2 cell lines corresponds to the activation or inhibition of the respective vasopressin receptor. The bioluminescence of the cell lines is detected using a suitable luminometer [Milligan G, Marshall F, Rees S, Trends in Pharmacological Sciences 17, 235-237 (1996)].
Vasopressin V1a Receptor Cell Lines:
On the day before the assay, the cells are plated out in culture medium (DMEM/F12, 2% FCS, 2 mM glutamine, 10 mM HEPES, 5 μg/ml coelenterazine) in 384-well microtiter plates and kept in a cell incubator (96% humidity, 5% v/v CO2, 37° C.). On the day of the assay, test compounds in various concentrations are placed for 10 minutes in the wells of the microtiter plate before the agonist [Arg^8]-vasopressin at EC50 concentration is added. The resulting light signal is measured immediately in a luminometer.
(§3) Table 1A below lists individual IC50 values for the compounds of the invention (including racemic mixtures as well as separated enantiomers) that were obtained from cell lines transfected with the human V1a or V2 receptor: […]

In another assay the target is T2, human V2 receptor (Homo sapiens, UniProt P30518).
T2 construct: expressed in transfected cells; host or cells: CHO K1 (ATCC) expressing firefly luciferase under a CRE-responsive promoter
T2 sequence (P30518 whole entry): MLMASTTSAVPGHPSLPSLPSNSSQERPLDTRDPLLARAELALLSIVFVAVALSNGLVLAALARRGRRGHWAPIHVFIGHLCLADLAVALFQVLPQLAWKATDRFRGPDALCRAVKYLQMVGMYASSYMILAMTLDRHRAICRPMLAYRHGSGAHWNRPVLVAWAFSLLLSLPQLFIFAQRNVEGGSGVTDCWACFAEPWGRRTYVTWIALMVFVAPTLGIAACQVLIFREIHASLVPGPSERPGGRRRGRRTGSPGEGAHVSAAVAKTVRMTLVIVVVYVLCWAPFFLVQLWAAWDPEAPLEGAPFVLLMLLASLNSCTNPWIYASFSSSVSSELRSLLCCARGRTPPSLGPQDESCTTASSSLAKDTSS
The assay can be described thus: Cellular in vitro assay for determining vasopressin receptor activity (V2, CRE-luciferase). It is filed as cell-based. The settings on record: CHO cell line transfected with human V2 receptor; [Arg8]-vasopressin at EC50 concentration; read-out: IC50 hV2. The method, then: as §1, §2
Vasopressin V2 Receptor Cell Lines:
On the day before the assay, the cells are plated out in culture medium (DMEM/F12, 2% FCS, 2 mM glutamine, 10 mM HEPES) in 384-well microtiter plates and kept in a cell incubator (96% humidity, 5% v/v CO2, 37° C.). On the day of the assay, test compounds in various concentrations and the agonist [Arg^8]-vasopressin at EC50 concentration are added together to the wells, and plates are incubated for 3 hours in a cell incubator. Upon addition of the cell lysis reagent Triton™ and the substrate luciferin, luminescence of firefly luciferase is measured in a luminometer.
as §3

This note sets out measurements from patent US10526314B2, “Hydroxyalkyl-substituted heteroaryltriazole derivatives and uses thereof” (BAYER AKTIENGESELLSCHAFT, priority 2016, dated 2020).

Molecules are shown by their SMILES.

T1 sequence (P37288 whole entry): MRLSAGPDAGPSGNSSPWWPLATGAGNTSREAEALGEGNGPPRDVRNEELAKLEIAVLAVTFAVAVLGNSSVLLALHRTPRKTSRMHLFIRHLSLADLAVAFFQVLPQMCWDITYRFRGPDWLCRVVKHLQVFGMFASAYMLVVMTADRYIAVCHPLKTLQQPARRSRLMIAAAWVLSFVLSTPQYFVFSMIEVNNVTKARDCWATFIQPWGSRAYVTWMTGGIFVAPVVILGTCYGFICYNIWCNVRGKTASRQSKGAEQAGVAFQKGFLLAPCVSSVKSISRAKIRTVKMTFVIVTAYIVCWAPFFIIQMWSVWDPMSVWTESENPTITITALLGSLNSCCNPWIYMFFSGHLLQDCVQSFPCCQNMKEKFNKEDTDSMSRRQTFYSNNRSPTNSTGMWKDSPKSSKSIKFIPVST

By IC50 is commonly meant the concentration that inhibits the measured activity by half. With `C[C@H](O)c1nc(Cn2nc(-c3ccc(Cl)cc3)n(C[C@H](O)C(F)(F)F)c2=O)nn1-c1ncccc1F` [Example 11, 5-(4-Chlorophenyl)-2-({1-(3-fluoropyridin-2-yl)-5-[(1S)-1-hydroxyethyl]-1H-1,2,4-triazol-3-yl}methyl)-4-[(2S)-3,3,3-trifluoro-2-hydroxypropyl]-2,4-dihydro-3H-1,2,4-triazol-3-one], the IC50 turned out to be 0.0056 µM at human V1a receptor and 0.0227 µM at human V2 receptor. Besides, at human V1a receptor, the “ratio IC50 hV2/hV1a” value was 4.1.

For the compound `C[C@H](O)c1nc(Cn2nc(-c3ccc(Cl)cc3)n(C[C@H](O)C(F)(F)F)c2=O)nn1-c1ncccc1OC(F)(F)F` [Example 12, 5-(4-Chlorophenyl)-2-({5-[(1S)-1-hydroxyethyl]-1-[3-(trifluoromethoxy)pyridin-2-yl]-1H-1,2,4-triazol-3-yl}methyl)-4-[(2S)-3,3,3-trifluoro-2-hydroxypropyl]-2,4-dihydro-3H-1,2,4-triazol-3-one], the results for the IC50 on human V1a receptor and at human V2 receptor were 0.0057 µM and 0.0647 µM, respectively. The “ratio IC50 hV2/hV1a” value on human V1a receptor stood at 11.3.

For the compound `C[C@@H](O)c1nc(Cn2nc(-c3ccc(Cl)cc3)n(C[C@H](O)C(F)(F)F)c2=O)nn1-c1ncccc1F` [Example 13, 5-(4-Chlorophenyl)-2-({1-(3-fluoropyridin-2-yl)-5-[(1R)-1-hydroxyethyl]-1H-1,2,4-triazol-3-yl}methyl)-4-[(2S)-3,3,3-trifluoro-2-hydroxypropyl]-2,4-dihydro-3H-1,2,4-triazol-3-one], on human V1a receptor, the IC50 was determined as 0.00605 µM and the “ratio IC50 hV2/hV1a” value is 6.4. The IC50 at human V2 receptor is 0.0387 µM.

In the case of `C[C@H](O)c1nc(Cn2nc(-c3ccc(Cl)cc3)n(C[C@H](O)C(F)(F)F)c2=O)nn1-c1ccccn1` [Example 14, 5-(4-Chlorophenyl)-2-({5-[(1S)-1-hydroxyethyl]-1-(pyridin-2-yl)-1H-1,2,4-triazol-3-yl}methyl)-4-[(2S)-3,3,3-trifluoro-2-hydroxypropyl]-2,4-dihydro-3H-1,2,4-triazol-3-one], the IC50 at human V1a receptor was 0.00645 µM; at human V2 receptor it was 0.0655 µM. Moreover, at human V1a receptor, the “ratio IC50 hV2/hV1a” value is listed as 10.2.

For `C[C@H](O)c1nc(Cn2nc(-c3ccc(Cl)cc3)n(C[C@H](O)C(F)(F)F)c2=O)nn1-c1ccc(Cl)cn1` [Example 15, 5-(4-Chlorophenyl)-2-({1-(5-chloropyridin-2-yl)-5-[(1S)-1-hydroxyethyl]-1H-1,2,4-triazol-3-yl}methyl)-4-[(2S)-3,3,3-trifluoro-2-hydroxypropyl]-2,4-dihydro-3H-1,2,4-triazol-3-one], on human V1a receptor, the IC50 came out at 0.00825 µM and the “ratio IC50 hV2/hV1a” value is 1.4. On human V2 receptor, the IC50 came out at 0.0117 µM.

As to `C[C@@H](O)c1nc(Cn2nc(-c3ccc(Cl)cc3)n(C[C@H](O)C(F)(F)F)c2=O)nn1-c1ncccc1OC(F)(F)F` [Example 16, 5-(4-Chlorophenyl)-2-({5[(1R)-1hydroxyethyl]-1-[3-(trifluoromethoxy)pyridin-2-yl]-1H-1,2,4-triazol-3yl}methyl)-4-[(2S)-3,3,3-trifluoro-2-hydroxypropyl]-2,4-dihydro-3H-1,2,4-triazol-3-one], the IC50 at human V1a receptor was found to be 0.013 µM; on human V2 receptor it was 0.387 µM. In addition, the “ratio IC50 hV2/hV1a” value at human V1a receptor is 29.7.

In the case of `C[C@H](O)c1nc(Cn2nc(-c3ccc(Cl)cc3)n(C[C@H](O)C(F)(F)F)c2=O)nn1-c1cccc(F)n1` [Example 17, 5-(4-Chlorophenyl)-2-({1-(6-fluoropyridin-2-yl)-5-[(1S)-1-hydroxyethyl]-1H-1,2,4-triazol-3-yl}methyl)-4-[(2S)-3,3,3-trifluoro-2-hydroxypropyl]-2,4-dihydro-3H-1,2,4-triazol-3-one], at human V1a receptor, the IC50 is 0.0145 µM and the “ratio IC50 hV2/hV1a” value was 2.7. The IC50 on human V2 receptor was found to be 0.0395 µM.

For the compound `C[C@H](O)c1nc(Cn2nc(-c3ccc(Cl)cc3)n(C[C@H](O)C(F)(F)F)c2=O)nn1-c1ccncc1` [Example 18, 5-(4-Chlorophenyl)-2-({5-[(1S)-1-hydroxyethyl]-1-(pyridin-4-yl)-1H-1,2,4-triazol-3-yl}methyl)-4-[(2S)-3,3,3-trifluoro-2-hydroxypropyl]-2,4-dihydro-3H-1,2,4-triazol-3-one], the IC50 came to 0.0286 µM on human V1a receptor and 0.199 µM on human V2 receptor. In addition, the “ratio IC50 hV2/hV1a” value on human V1a receptor is 7.0.

With `C[C@H](O)c1nc(Cn2nc(-c3ccc(Cl)cc3)n(C[C@H](O)C(F)(F)F)c2=O)nn1-c1cnccn1` [Example 19, 5-(4-Chlorophenyl)-2-({5-[(1S)-1-hydroxyethyl]-1-(pyrazin-2-yl)-1H-1,2,4-triazol-3-yl}methyl)-4-[(2S)-3,3,3-trifluoro-2-hydroxypropyl]-2,4-dihydro-3H-1,2,4-triazol-3-one], the values for the IC50 on human V1a receptor and at human V2 receptor were 0.0295 µM and 0.32 µM, respectively. In addition, at human V1a receptor, the “ratio IC50 hV2/hV1a” value stood at 10.8.

`C[C@H](O)c1nc(Cn2nc(-c3ccc(Cl)cc3)n(C[C@H](O)C(F)(F)F)c2=O)nn1-c1cccnn1` [Example 20, 5-(4-Chlorophenyl)-2-({5-[(1S)-1-hydroxyethyl]-1-(pyridazin-3-yl)-1H-1,2,4-triazol-3-yl}methyl)-4-[(25)-3,3,3-trifluoro-2-hydroxypropyl]-2,4-dihydro-3H-1,2,4-triazol-3-one]: at human V1a receptor, the IC50 came out at 0.0476 µM and the “ratio IC50 hV2/hV1a” value is 4.9. Also, the IC50 at human V2 receptor came to 0.235 µM.

Take `COc1nccnc1-n1nc(Cn2nc(-c3ccc(Cl)cc3)n(C[C@H](O)C(F)(F)F)c2=O)nc1[C@H](C)O` [Example 21, 5-(4-Chlorophenyl)-2-({5-[(1S)-1-hydroxyethyl]-1-(3-methoxypyrazin-2-yl)-1H-1,2,4-triazol-3-yl}methyl)-4-[(2S)-3,3,3-trifluoro-2-hydroxypropyl]-2,4-dihydro-3H-1,2,4-triazol-3-one]: on human V1a receptor, the IC50 came out at 0.049 µM and the “ratio IC50 hV2/hV1a” value stood at 0.9. Besides, on human V2 receptor, the IC50 was found to be 0.046 µM.

For the compound `C[C@H](O)c1nc(Cn2nc(-c3ccc(Cl)cc3)n(C[C@H](O)C(F)(F)F)c2=O)nn1-c1nccn1C` [Example 22, 5-(4-Chlorophenyl)-2-({5-[(1S)-1-hydroxyethyl]-1-(1-methyl-1H-imidazol-2-yl)-1H-1,2,4-triazol-3-yl}methyl)-4-[(2S)-3,3,3-trifluoro-2-hydroxypropyl]-2,4-dihydro-3H-1,2,4-triazol-3-one], at human V1a receptor, the IC50 stood at 0.0681 µM and the “ratio IC50 hV2/hV1a” value is 2.0. Further, the IC50 at human V2 receptor is 0.138 µM.

As for `C[C@@H](O)c1nc(Cn2nc(-c3ccc(Cl)cc3)n(C[C@H](O)C(F)(F)F)c2=O)nn1-c1ccccn1` [Example 23, 5-(4-Chlorophenyl)-2-({5-[(1R)-1-hydroxyethyl]-1-(pyridin-2-yl)-1H-1,2,4-triazol-3-yl}methyl)-4-[(2S)-3,3,3-trifluoro-2-hydroxypropyl]-2,4-dihydro-3H-1,2,4-triazol-3-one], at human V1a receptor, the IC50 was 0.0865 µM and the “ratio IC50 hV2/hV1a” value worked out at 1.2. At human V2 receptor, the IC50 is 0.103 µM.

As for `C[C@H](O)c1nc(Cn2nc(-c3ccc(Cl)cc3)n(C[C@H](O)C(F)(F)F)c2=O)nn1-c1ncccc1C(F)(F)F` [Example 30, 5-(4-chlorophenyl)-2-({5-[(1S)-1-hydroxyethyl]-1-[3-(trifluoromethyl)pyridin-2-yl]-1H-1,2,4-triazol-3-yl}methyl)-4-[(2S)-3,3,3-trifluoro-2-hydroxypropyl]-2,4-dihydro-3H-1,2,4-triazol-3-one], the IC50 on human V1a receptor stood at 0.0033 µM; on human V2 receptor, 0.0485 µM. In addition, the “ratio IC50 hV2/hV1a” value at human V1a receptor was determined as 14.9.
